Laboratory results taken from patent publication US5776944A, “7-(4-aminomethyl-3-methyloxyiminopyrroplidin-1-yl)-1-cyclopropyl-6-flu oro-4-oxo-1,4-dihydro-1,8-naphthyridine-3-carboxylic acid and the process for the preparation thereof” (LG Chemical Ltd., priority 1994, dated 1998).
≈ marks a conversion by molar mass, not a printed value.

How the values were obtained:
[1] = test system: Staphylococcus aureus 6538p; experiment: In vitro antibacterial activity (MIC, agar dilution), Biological Example 1; type: cell-based; conditions: 18 h, Table 25, read-out: Minimum Inhibitory Concentration
[2] = test system: Staphylococcus aureus giorgio; experiment: as above; type: cell-based; conditions: 18 h, Table 25, read-out: Minimum Inhibitory Concentration
Staphylococcus aureus 77 = experiment: as above; type: cell-based; conditions: 18 h; Staphylococcus aureus 77, Table 25; read-out: Minimum Inhibitory Concentration
[3] = test system: Staphylococcus aureus 241; experiment: as above; type: cell-based; conditions: 18 h; Staphylococcus aureus 241, Table 25; read-out: Minimum Inhibitory Concentration
[4] = test system: Staphylococcus epidermidis 887E; experiment: as above; type: cell-based; conditions: 18 h, Table 25, read-out: Minimum Inhibitory Concentration
[5] = test system: Staphylococcus epidermidis 178; experiment: as above; type: cell-based; conditions: 18 h; Staphylococcus epidermidis 178, Table 25; read-out: Minimum Inhibitory Concentration
[6] = test system: Streptococcus faecalis 29212; experiment: as above; type: cell-based; conditions: Enterococcus faecalis, 18 h; Streptococcus faecalis 29212, Table 25; read-out: Minimum Inhibitory Concentration
Bacillus subtilis 6633 = experiment: as above; type: cell-based; conditions: 18 h; Bacillus subtilis 6633, Table 25; read-out: Minimum Inhibitory Concentration
Micrococcus luteus 9341 = experiment: as above; type: cell-based; conditions: 18 h; Micrococcus luteus 9341, Table 25; read-out: Minimum Inhibitory Concentration
Escherichia coli 10536 = experiment: as above; type: cell-based; conditions: 18 h; Escherichia coli 10536, Table 25; read-out: Minimum Inhibitory Concentration
Escherichia coli 3190Y = experiment: as above; type: cell-based; conditions: 18 h, Table 25, read-out: Minimum Inhibitory Concentration
Escherichia coli 851E = experiment: as above; type: cell-based; conditions: 18 h, Table 25, read-out: Minimum Inhibitory Concentration
[7] = test system: Escherichia coli TEM3 3455E; experiment: microbe, parasite or virus in culture; type: cell-based; conditions: TEM33455E, 18 h, read-out: Minimum Inhibitory Concentration
[8] = test system: Escherichia coli TEM5 3739E; experiment: microbe, parasite or virus in culture; type: cell-based; conditions: TEM53739E, 18 h, read-out: Minimum Inhibitory Concentration
[9] = test system: Escherichia coli TEM9 2639E; experiment: microbe, parasite or virus in culture; type: cell-based; conditions: TEM92639E, 18 h, read-out: Minimum Inhibitory Concentration
[10] = test system: Pseudomonas aeruginosa 1912E; experiment: In vitro antibacterial activity (MIC, agar dilution), Biological Example 1; type: cell-based; conditions: 18 h; Pseudomonas aeruginosa 1912E, Table 25; read-out: Minimum Inhibitory Concentration
[11] = test system: Pseudomonas aeruginosa 10145; experiment: as above; type: cell-based; conditions: 18 h; Pseudomonas aeruginosa 10145, Table 25; read-out: Minimum Inhibitory Concentration
[12] = test system: Acinetobacter calcoaceticus 15473; experiment: as above; type: cell-based; conditions: 18 h; Acinetobacter calcoaceticus 15473, Table 25; read-out: Minimum Inhibitory Concentration
[13] = test system: Citrobacter diversus 2046E; experiment: as above; type: cell-based; conditions: Citrobacter koseri, 18 h, Table 25, read-out: Minimum Inhibitory Concentration
[14] = test system: Enterobacter cloacae 1194E; experiment: microbe, parasite or virus in culture; type: cell-based; conditions: 18 h, read-out: Minimum Inhibitory Concentration
Enterobacter cloacae P99 = experiment: microbe, parasite or virus in culture; type: cell-based; conditions: P99, 18 h, read-out: Minimum Inhibitory Concentration
[15] = test system: Klebsiella aerogenes 1976E; experiment: In vitro antibacterial activity (MIC, agar dilution), Biological Example 1; type: cell-based; conditions: 18 h, Table 25, read-out: Minimum Inhibitory Concentration
[16] = test system: Klebsiella aerogenes 1082E; experiment: as above; type: cell-based; conditions: 18 h, Table 25, read-out: Minimum Inhibitory Concentration
[17] = test system: Salmonella typimurium 14028; experiment: as above; type: cell-based; conditions: 18 h; Salmonella typimurium 14028, Table 25; read-out: Minimum Inhibitory Concentration
Acute oral toxicity test = conditions: in vivo, ICR male mouse, 7 days
Experimental: To determine the acute oral toxicity of the compounds prepared in Examples 1 and 34, the test solution containing the compounds in various concentrations were orally administered to ICR male mouse in an amount of 10 ml per kg of body weight. For 7 days after administration, the lethality and the conditions of test mouse were observed, from which LD50 value (mg/kg), was calculated.

NCC1CN(c2c(F)cc3c(=O)c(C(=O)O)cn(C4CC4)c3c2Cl)CC1=NOCc1ccccc1 (centres unmarked) [Example 34, 7-(4-aminomethyl-3-benzyoxyimino-pyrrolidin-1-yl)-8-chloro-1-cyclopropyl-6-fluoro-1,4-dihydro-4-oxo-guinoline-3-carboxylic acid]
MIC [1]: ≤ 0.008 µg/mL
MIC [2]: ≤ 0.008 µg/mL
MIC (Staphylococcus aureus 77): ≤ 0.008 µg/mL
MIC [3]: 4 µg/mL (≈ 8.02 µM)
MIC [4]: ≤ 0.008 µg/mL
MIC [5]: 2 µg/mL (≈ 4.01 µM)
MIC [6]: 0.13 µg/mL (≈ 0.261 µM)
MIC (Bacillus subtilis 6633): ≤ 0.008 µg/mL
MIC (Micrococcus luteus 9341): 0.13 µg/mL (≈ 0.261 µM)
MIC (Escherichia coli 10536): 0.016 µg/mL (≈ 0.0321 µM)
MIC (Escherichia coli 3190Y): ≤ 0.008 µg/mL
MIC (Escherichia coli 851E): 0.13 µg/mL (≈ 0.261 µM)
MIC [7]: 1 µg/mL (≈ 2 µM)
MIC [8]: 0.5 µg/mL (≈ 1 µM)
MIC [9]: 0.13 µg/mL (≈ 0.261 µM)
MIC [10]: 0.5 µg/mL (≈ 1 µM)
MIC [11]: 2 µg/mL (≈ 4.01 µM)
MIC [12]: 0.031 µg/mL (≈ 0.0621 µM)
MIC [13]: 0.25 µg/mL (≈ 0.501 µM)
MIC [14]: 0.25 µg/mL (≈ 0.501 µM)
MIC (Enterobacter cloacae P99): 0.063 µg/mL (≈ 0.126 µM)
MIC [15]: 0.5 µg/mL (≈ 1 µM)
MIC [16]: 0.031 µg/mL (≈ 0.0621 µM)
MIC [17]: 0.063 µg/mL (≈ 0.126 µM)
LD50 at 168 h (Acute oral toxicity test): > 3000 mg/kg

NCC1CN(c2nc3c(cc2F)c(=O)c(C(=O)O)cn3C2CC2)CC1=NOCc1ccccc1 (centres unmarked) [Example 1, 7-(4-aminomethyl-3-benzyloxyimino-pyrrolidin-1-yl)-1-cyclopropyl-6-fluoro-1,4-dihydro-4-oxo-1,8-naphthyridine-3-carboxylic acid]
MIC [1]: ≤ 0.008 µg/mL
MIC [2]: ≤ 0.008 µg/mL
MIC (Staphylococcus aureus 77): ≤ 0.008 µg/mL
MIC [3]: 2 µg/mL (≈ 4.3 µM)
MIC [4]: ≤ 0.008 µg/mL
MIC [5]: 2 µg/mL (≈ 4.3 µM)
MIC [6]: 0.031 µg/mL (≈ 0.0666 µM)
MIC (Bacillus subtilis 6633): ≤ 0.008 µg/mL
MIC (Micrococcus luteus 9341): 0.063 µg/mL (≈ 0.135 µM)
MIC (Escherichia coli 10536): ≤ 0.008 µg/mL
MIC (Escherichia coli 3190Y): ≤ 0.008 µg/mL
MIC (Escherichia coli 851E): 0.016 µg/mL (≈ 0.0344 µM)
MIC [7]: 0.25 µg/mL (≈ 0.537 µM)
MIC [8]: 0.063 µg/mL (≈ 0.135 µM)
MIC [9]: 0.063 µg/mL (≈ 0.135 µM)
MIC [10]: 1 µg/mL (≈ 2.15 µM)
MIC [11]: 2 µg/mL (≈ 4.3 µM)
MIC [12]: ≤ 0.008 µg/mL
MIC [13]: 0.063 µg/mL (≈ 0.135 µM)
MIC [14]: 0.031 µg/mL (≈ 0.0666 µM)
MIC (Enterobacter cloacae P99): ≤ 0.008 µg/mL
MIC [15]: 0.25 µg/mL (≈ 0.537 µM)
MIC [16]: 0.063 µg/mL (≈ 0.135 µM)
MIC [17]: 0.13 µg/mL (≈ 0.279 µM)
LD50 at 168 h (Acute oral toxicity test): > 3000 mg/kg
